Data from US20120149645A1, “COMPOSITIONS AND MODULATION OF MYOCYTE ENHANCER FACTOR 2 (MEF2)” (EMORY UNIVERSITY, priority 2010, published 2012).

B1: Mt2D: Mitochondria-targeting active MEF2D: mouse MEF2D 1-493aa with added mitochondria-targeting signal, lacking nuclear localization signals (protein, UniProt Q63943 1-493, looked up, fragment)
chain: MGRKKIQIQRITDERNRQVTFTKRKFGLMKKAYELSVLCDCEIALIIFNHSNKLFQYASTDMDKVLLKYTEYNEPHESRTNADIIETLRKKGFNGCDSPEPDGEDSLEQSPLLEDKYRRASEELDGLFRRYGSSVPAPNFAMPVTVPVSNQSSMQFSNPSSSLVTPSLVTSSLTDPRLLSPQQPALQRNSVSPGLPQRPASAGAMLGGDLNSANGACPSPVGNGYVSARASPGLLPVANGNSLNKVIPAKSPPPPTHNTQLGAPSRKPDLRVITSQGGKGLMHHLTEDHLDLNNAQRLGVSQSTHSLTTPVVSVATPSLLSQGLPFSSMPTAYNTDYQLPSAELSSLPAFSSPAGLALGNVTAWQQPQPPQQPQPPQPPQSQPQPPQPQPQQPPQQQPHLVPVSLSNLIPGSPLPHVGAALTVTTHPHISIKSEPVSPSRERSPAPPPPAVFPAARPEPGEGLSSPAGGSYETGDRDDGRGDFGPTLGLLRPA
modifications: mitochondria-targeting signal added
B2: MEF2D1-131: dominant-negative form of MEF2D which interferes with nuclear MEF2 function (protein, UniProt Q63943 1-131, looked up, fragment)
chain: MGRKKIQIQRITDERNRQVTFTKRKFGLMKKAYELSVLCDCEIALIIFNHSNKLFQYASTDMDKVLLKYTEYNEPHESRTNADIIETLRKKGFNGCDSPEPDGEDSLEQSPLLEDKYRRASEELDGLFRRY

Legend:
SN4741 cells [1] = experiment: WST-1 cell viability assay; assay type: cell-based, mouse; conditions: SN4741 cells; different doses of MPP+ for 24 hours
Experimental: (§1) (A) Reduced binding of MEF2D to ND6 after neurotoxin treatment. SN4741 cells were treated with MPP+ (25 μM) or rotenone (Rot, 100 nM) for 12 hours. […] Control indicates untreated. […] Control indicates untreated. (C) Immunocytochemical analysis of mitochondrial MEF2D after MPP+ and rotenone treatment. SN4741 cells treated as described in (A) were stained (scale bar, 10 μm). […] Experiments were repeated four times. Control indicates untreated. […] SN4741 cells were treated with MPP+ after infection with the control, Mt2Ddn or Mt2DVP16 or MtND6 lentiviruses for 24 hours (upper graph: different doses of MPP+ for 24 hours; lower graph: 5 μM of MPP+ for different times). Cell viability was measured by WST-1 assay (n=4; *p<0.05; **P<0.01). Control indicates the control vector group.
WST-1 assay was done using a kit (cat. no. 11644807001) from Roche and following procedures provided by the manufacturer. WST-1 (4-[3-(4-Iodophenyl)-2-(4-nitrophenyl)-2H-5-tetrazolio]-1,3-benzene disulfonate) is a water-soluble tetrazolium salt whose cleavage by cellular enzymes correlates with cell viability. Cells were seeded in 96-well plates and treated as indicated. Than 10 μl/well of premixed WST-1 Cell Proliferation Reagent was added, and the cells were incubated for an additional 4 hr under the same conditions. Absorbance at 450 nm was measured on a multi-well plate reader (Bio-Tek).

MEF2D binding to ND6 = experiment: ChIP assay of MEF2D binding to the ND6 MEF2 site in purified mitochondria; assay type: cell-based, mouse; conditions: for binding of mitochondrial MEF2D to the ND6 MEF2 site: SN4741 cells, MPP+ 25 μM or rotenone 100 nM for 12 hours
Text: (§2) (A) Mitochondria-targeting MEF2D (Mt2D) and mitochondria-targeting dominant-negative MEF2D (Mt2Ddn), which lacks the transactivation domain (TAD). […] Control indicates the control vector group. (C) Effects of Mt2D or Mt2Ddn on ND6 expression in SN4741 cells. Over-expression of Mt2Ddn in SN4741 cells reduced ND6 but not PPAR-γ coactivator 1 (PGC1) expression by western blotting (n=4, **p<0.01). Control indicates the control vector group. (D) Effects of over-expression of Mt2D or Mt2Ddn on mRNA levels of mitochondria encoded genes. […] Control indicates the control vector group. (E) Effects of Mt2D or Mt2Ddn on mtDNA L-strand transcription initiation in vitro (n=3; **P<0.01). A human mtDNA fragment containing mitochondrial L-strand promoter (LSP) and ND6 gene was used in the in vitro transcription assay. […] (F) Effects of Mt2D or Mt2Ddn on mtDNA de novo transcription in vivo (n=3; **P<0.01). Control (−) is without primers. Control (+) indicates the control vector group.
as §1
Andres et al., J Biol Chem, 1995, 270:23246-23249. Moreover, this putative MEF2 binding site is conserved among several species. To test whether MEF2D binds to this putative MEF2 site, electronic mobility shift assay (EMSA) was performed. N-terminal MEF2D formed a complex with the labeled probe containing the ND6 MEF2 site. […] To corroborate this finding, a chromatin immunoprecipitation (ChIP) assay was carried out using highly purified mitochondria. […] ND6 but not ND2 based primers could amplify the bound sequence (FIG. 3C). Sequence analysis of the DNA bound by MEF2D after amplification confirmed the presence of the ND6 MEF2 site (FIG. 3D).

SN4741 cells [2] = experiment: Immunocytochemistry, colocalization of MEF2D with MitoTracker; assay type: cell-based, mouse; conditions: SN4741 cells and primary midbrain dopamine neurons; toxicant treatment
Experimental: as §1
SN4741 cells or primary midbrain DA neurons were plated on glass slides in 24-well plates. Localizations of endogenous and exogenous MEF2D were visualized on a Zeiss LSM5 PASCAL confocal microscope. To visualize colocalization of MEF2D with the mitochondria, cells were stained with MitoTracker (Invitrogen) and anti-MEF2D (BD Bioscience) or anti-FLAG (Sigma) antibodies. Quantification of colocalization of signals was done using “Colocalization Analysis” program of software Image Pro (Media Cybernetics). Overlap coefficients of 50 cells in each group were collected. […]

MEF2D and ND6 proteins = experiment: Western blotting of MEF2D, ND6 and PGC1 protein levels in SN4741 cells; assay type: cell-based, mouse; conditions: for level of ND6 protein / level of mitochondrial MEF2D protein / level of MEF2D in the nucleus / level of MEF2D in whole cell: SN4741 cells; for level of ND6 protein / level of mitochondrial MEF2D protein: purified mitochondria, MPP+ 25 μM or rotenone 100 nM for 12 hours; for level of MEF2D in the nucleus / level of MEF2D in whole cell: same toxicant condition
Text: as §2, §1
(§3) (A) Diagrams of Mt2DVP16 and MtND6. Mt2DVP16 was constructed by fusion of transactivation domain (TAD) of VP16 with DNA-binding domain of MEF2D and a mitochondria-targeting sequence (Mito). […] (C) Over-expression of Mt2DVP16 attenuated MEF2D siRNA-induced reduction of ND6 expression (n=3, **P<0.01).

ND6 mRNA = experiment: Real-time PCR of mitochondria-encoded mRNA levels in SN4741 cells; assay type: cell-based, mouse; conditions: SN4741 cells; relatively short exposure to toxicant
Text: as §2

mitochondrial complex I = experiment: Mitochondrial complex protein level and activity (BN-PAGE, in-gel staining, quantitative assays); assay type: cell-based, mouse; conditions: over-expression in SN4741 cells
Text: (§4) (A) Requirement of mitochondrial MEF2D for complex I activity. […] Control indicates the control vector group. (B) Over-expression of ND6 rescued complex I activity reduced by Mt2Ddn. Control indicates the control vector group. (C) Measurement of various complex activities. […] Control indicates the control vector group. (D) Effects of over-expression of Mt2D or Mt2Ddn on mitochondrial function. Mt2Ddn reduced cellular ATP level and elevated H2O2 production in SN4741 cells (n=4; *p<0.05; **P<0.01). Control indicates the control vector group.
(§5) Mitochondrial complex I activity was evaluated initially by blue native-polyacrylamide gel electrophoresis (BN-PAGE) and in-gel activity staining. This assay measures total complex I activity. Rotenone sensitive complex I activity and activities of other mitochondrial complexes were further measured by methods described by Antoni et al., J Biol Chem, 1998, 273:14210-14217. Briefly, parallel assays were performed to measure complex I activity at 340 nm using 2,3-dimethoxy-5-methyl-6-n-decyl-1,4-benzoquinone (DB) (50 μM) as acceptor and NADH (0.8 mM) as donor, in 50 mM Tris (pH 8.0) buffer supplemented with 5 mg/ml BSA either without or with the addition of 4 μM rotenone, which gave total and rotenone insensitive complex I activities, respectively. The difference in value between the two provided a quantified measure of the rotenone-sensitive activity. Mitochondrial membrane potential was detected using a kit (cat. no. 280002) from Stratagene following the procedures provided by the manufacturer. The fluorescent dye JC-1 (5,5′,6,6′-tetrachloro-1,1′,3,3′-tetraethylbenzimidazolyl carbocyanine iodide) stains mitochondria red in a membrane potential dependent manner. Briefly, cells were seeded in 96-well plates at 4×10^4 cells/well with 100 μl culture medium and incubated at 33° C. with 5% CO2. After treatment, 10 μl/well of premixed JC-1 staining solution was added, and the cells were incubated for an additional 30 min under the same conditions. After thorough washes, 100 μl assay buffer was added to each well. Fluorescence signal was detected with excitation and emission at 520 nm and 590 nm, respectively, on a multi-well plate reader (Bio-Tek). Cellular ATP and H202 were measured by Bioluminescent Somatic Cell ATP Assay Kit (Sigma) and Hydrogen Peroxide Assay Kit (Cayman), respectively.

[3] = system: human mtDNA fragment containing mitochondrial L-strand promoter (LSP) and ND6 gene; experiment: In vitro mtDNA L-strand transcription assay; assay type: biochemical
Text: as §2

SN4741 cells [4] = experiment: Mitochondrial functional assays (ATP, H2O2, membrane potential); assay type: cell-based, mouse; conditions: over-expression in SN4741 cells
Text: as §4, §5

SN4741 cells [5] = experiment: Subcellular localization of over-expressed MEF2D constructs; assay type: cell-based, mouse; conditions: over-expressed in SN4741 cells
Text: (A) Lack of mitochondrial localization by ΔN30MEF2D. […] VDAC, PARP and c-Raf are Mt, Nu and Cy markers, respectively. Control indicates the control vector group. (B) Immunocytochemistry analysis of mitochondrial localization of transfected Flag-MEF2D. […] Experiments were repeated four times. (C, D) Requirement of mtHsp70 for mitochondria-targeting of MEF2D (n=4; **p<0.01). Control indicates untreated. […]. Knocking down mouse mtHsp70 by siRNA reduced MEF2D level in purified mitochondria from SN4741 cells (C). […] MnSOD is a known mtHsp70-imported mitochondrial matrix protein.
as §3
(§6) Control indicates the group co-tranfected with control vector.
SN4741 cells or primary midbrain DA neurons were plated on glass slides in 24-well plates. Localizations of endogenous and exogenous MEF2D were visualized on a Zeiss LSM5 PASCAL confocal microscope. […] Quantification of colocalization of signals was done using “Colocalization Analysis” program of software Image Pro (Media Cybernetics). […]

nuclear MEF2 = experiment: MEF2 luciferase reporter assay; assay type: cell-based; conditions: co-transfected with MEF2 luciferase reporter
Text: as §6
MEF2 luciferase reporter assay was done as described Wang et al., J Biol Chem, 2005, 280:16705-16713. Briefly, cells were transiently transfected with various constructs with MEF2 luciferase reporter plasmid (WT, reporter with wild type MEF2 DNA binding sites; mt, reporter with the MEF2 DNA binding sites mutated) using Lipofectimane 2000 (Invitrogen) following procedures provided by the manufacturer. A β-galactosidase expression plasmid was used to determine the efficiency in each transfection. The total amount of DNA for each transfection was kept constant by using control vectors. Cell lysates were analyzed for luciferase and β-galactosidase activity according to the manufacturer's instructions (Roche, cat. no. 11669893001).

[6] = construct over-expressed in SN4741 cells

Molecule	neuronal viability (SN4741 cells [1])	binding of mitochondrial MEF2D to the ND6 MEF2 site (MEF2D binding to ND6)	colocalization of MEF2D and MitoTracker signals (SN4741 cells [2])	level of ND6 protein (MEF2D and ND6 proteins)	level of mitochondrial MEF2D protein (MEF2D and ND6 proteins)	level of MEF2D in the nucleus (MEF2D and ND6 proteins)	level of MEF2D in whole cell (MEF2D and ND6 proteins)	mRNA level of ND6 (ND6 mRNA)	mitochondrial complex I activity (mitochondrial complex I)	level of L-strand promoter (LSP) transcripts [3]	cellular ATP level (SN4741 cells [4])	hydrogen peroxide production by mitochondria (SN4741 cells [4])	mitochondrial membrane potential (SN4741 cells [4]; JC-1)	mitochondrial localization by immunocytochemical staining (MitoTracker) (SN4741 cells [5])	binding of full length MEF2D to the ND6 MEF2 site (MEF2D binding to ND6; [6])	ND6 protein level / expression (MEF2D and ND6 proteins; [6])	nuclear MEF2 activity (MEF2 reporter) (nuclear MEF2)
C[n+]1ccc(-c2ccccc2)cc1 [MPP+, 1-methyl-4-phenylpyridinium]	loss of neuronal viability in a dose dependent manner	greatly reduced	preferentially reduced	decrease	decrease	not affected	not affected	greatly reduced	–	–	–	–	–	–	–	–	–
C=C(C)[C@H]1Cc2c(ccc3c2O[C@@H]2COc4cc(OC)c(OC)cc4[C@@H]2C3=O)O1 [rotenone]	–	greatly reduced	preferentially reduced	decrease	decrease	not affected	not affected	greatly reduced	–	–	–	–	–	–	–	–	–
B1	–	–	–	–	–	–	–	–	neither increased the protein level nor the activity	increases	did not alter	did not alter	did not alter	targeted exclusively to mitochondria	modulated	did not significantly change	did not affect
B2	–	–	–	–	–	–	–	–	–	–	–	–	–	–	–	–	interferes with nuclear MEF2 function
